Assay results from US8445489B2, “Aryl ether pyridazinone derivatives” (Merck Patent GmbH, priority 2007, dated 2013).

Legend:
Met kinase = molecular target: T1, Met kinase (Homo sapiens, UniProt P08581); test: Met kinase inhibition (enzyme assay), flashplate method; format: biochemical
T1 construct: 6His (N); purchased Upstate 14-526; host or cells: Sf21 insect cells (S. frugiperda), baculovirus
Description: According to the manufacturer's data (Met, active, upstate, catalogue No. 14-526), Met kinase is expressed for the purposes of protein production in insect cells (Sf21; S. frugiperda) and subsequent affinity-chromatographic purification as “N-terminal 6His-tagged” recombinant human protein in a baculovirus expression vector.
The test plates used are 96-well Flashplate® microtitre plates from Perkin Elmer (Cat. No. SMP200). The components of the kinase reaction described below are pipetted into the assay plate. The Met kinase and the substrate poly Ala-Glu-Lys-Tyr, (pAGLT, 6:2:5:1), are incubated for 3 hrs at room temperature with radioactively labelled ^33P-ATP in the presence and absence of test substances in a total volume of 100 μl. The reaction is terminated using 150 μl of a 60 mM EDTA solution. After incubation for a further 30 min at room temperature, the supernatants are filtered off with suction, and the wells are washed three times with 200 μl of 0.9% NaCl solution each time. The measurement of the bound radioactivity is carried out by means of a scintillation measuring instrument (Topcount NXT, Perkin-Elmer).
The full value used is the inhibitor-free kinase reaction. This should be approximately in the range 6000-9000 cpm. The pharmacological zero value used is staurosporin in a final concentration of 0.1 mM. The inhibitory values (IC50) are determined using the RS1_MTS program.
Kinase Reaction Conditions Per Well:
10 μl of substance to be tested in assay buffer with 10% of DMSO
10 μl of ATP (final concentration 1 μM cold, 0.35 μCi of ^33P-ATP)
50 μl of Met kinase/substrate mixture in assay buffer;
• (10 ng of enzyme/well, 50 ng of pAGLT/well)
50 mM HEPES • 3 mM magnesium chloride • 3 μM sodium orthovanadate • 3 mM manganese(II) chloride • 1 mM dithiothreitol (DTT) pH=7.5 (to be set using sodium hydroxide)
60 mM Titriplex III (EDTA) • ^33P-ATP: Perkin-Elmer; • Met kinase: Upstate, Cat. No. 14-526, Stock 1 μg/10 μl; spec. activity 954 U/mg; • Poly-Ala-Glu-Lys-Tyr, 6:2:5:1: Sigma Cat. No. P1152 In-Vivo Tests (FIG. 1/1) Experimental Procedure: […]

TPR-Met/NIH3T3 cells = test: In-vivo test, TPR-Met/NIH3T3 tumour model in mice; conditions: 200 mg/kg daily by gastric tube, 9 days; tumour volume; female Balb/C mice, s.c. TPR-Met/NIH3T3 cells
Method: Female Balb/C mice (breeder: Charles River Wiga) were 5 weeks old on arrival. They were acclimatised to our keeping conditions for 7 days. Each mouse was subsequently injected subcutaneously in the pelvic area with 4 million TPR-Met/NIH3T3 cells in 100 μl of PBS (without Ca++ and Mg++). […] 100 μl of vehicle (0.25% methylcellulose/100 mM acetate buffer, pH 5.5) were administered daily to the control group, and 200 mg/kg of “A56” or “A91” dissolved in the vehicle (volume likewise 100 μl/animal) were administered daily to the treatment groups, in each case by gastric tube.
The length (L) and breadth (B) were measured using a Vernier calliper, and the tumour volume was calculated from the formula L×B×B/2.
4 or 5 animals per cage, feeding with commercial mouse food (Sniff).

T1 sequence (P08581 956-1390 limits assumed): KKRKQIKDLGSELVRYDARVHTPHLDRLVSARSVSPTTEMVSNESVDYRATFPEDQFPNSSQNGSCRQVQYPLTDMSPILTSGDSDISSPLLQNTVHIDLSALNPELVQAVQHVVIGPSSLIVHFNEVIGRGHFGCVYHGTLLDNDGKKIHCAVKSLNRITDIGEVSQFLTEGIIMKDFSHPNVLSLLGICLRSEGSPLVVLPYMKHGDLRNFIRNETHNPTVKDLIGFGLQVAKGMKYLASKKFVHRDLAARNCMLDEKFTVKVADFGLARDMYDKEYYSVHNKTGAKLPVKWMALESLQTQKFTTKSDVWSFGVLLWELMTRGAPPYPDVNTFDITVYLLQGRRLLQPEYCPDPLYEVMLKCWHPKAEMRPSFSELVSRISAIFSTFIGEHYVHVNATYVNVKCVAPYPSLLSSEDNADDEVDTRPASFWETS

| IC50 (Met kinase) | SMILES | antitumoural action (TPR-Met/NIH3T3 cells) |
| --- | --- | --- |
| 10 to 1000 nM | CCOC(=O)Nc1cccc(Cn2nc(-c3ccc(OCCN4CCOCC4)cc3)ccc2=O)c1 [Compound A1] | – |
| 10 to 1000 nM | CCOC(=O)Nc1cccc(Cn2nc(-c3ccc(OCCCO)cc3)ccc2=O)c1 [Compound A2] | – |
| 10 to 1000 nM | CCOC(=O)Nc1cccc(Cn2nc(-c3ccc(OCCCN(C)C)cc3)ccc2=O)c1 [Compound A3] | – |
| 10 to 1000 nM | CCOC(=O)Nc1cccc(Cn2nc(-c3ccc(OCCCCCNC(=O)OC(C)(C)C)cc3)ccc2=O)c1 [Compound A4] | – |
| 10 to 1000 nM | CCOC(=O)Nc1cccc(Cn2nc(-c3ccc(OCCOC)cc3)ccc2=O)c1 [Compound A5] | – |
| 10 to 1000 nM | CCOC(=O)Nc1cccc(Cn2nc(-c3ccc(OCCNC(=O)OC(C)(C)C)cc3)ccc2=O)c1 [Compound A6] | – |
| 10 to 1000 nM | CCOC(=O)Nc1cccc(Cn2nc(-c3ccc(OCCCCOC)cc3)ccc2=O)c1 [Compound A7] | – |
| 10 to 1000 nM | CCOC(=O)Nc1cccc(Cn2nc(-c3ccc(OCCN(C)C)cc3)ccc2=O)c1 [Compound A8] | – |
| 10 to 1000 nM | CCOC(=O)Nc1cccc(Cn2nc(-c3ccc(OCCO)cc3)ccc2=O)c1 [Compound A9] | – |
| 10 to 1000 nM | CCOC(=O)Nc1cccc(Cn2nc(-c3ccc(OCCCCO)cc3)ccc2=O)c1 [Compound A10] | – |
| 10 to 1000 nM | CCOC(=O)Nc1cccc(Cn2nc(-c3ccc(OCCCOC)cc3)ccc2=O)c1 [Compound A11] | – |
| 10 to 1000 nM | CCOC(=O)Nc1cccc(Cn2nc(-c3ccc(OCCCCNC(=O)OC(C)(C)C)cc3)ccc2=O)c1 [Compound A12] | – |
| 10 to 1000 nM | CCOC(=O)Nc1cccc(Cn2nc(-c3ccc(OCCN(C(C)C)C(C)C)cc3)ccc2=O)c1 [Compound A13] | – |
| 10 to 1000 nM | CCOC(=O)Nc1cccc(Cn2nc(-c3ccc(OCC(=O)N(C)C)cc3)ccc2=O)c1 [Compound A14] | – |
| 10 to 1000 nM | CCOC(=O)Nc1cccc(Cn2nc(-c3ccc(OC4CCCN(CC)C4)cc3)ccc2=O)c1 (stereo not shown) [Compound A15] | – |
| 10 to 1000 nM | CCOC(=O)Nc1cccc(Cn2nc(-c3ccc(OCCCN4CCCCC4)cc3)ccc2=O)c1 [Compound A16] | – |
| 10 to 1000 nM | CCOC(=O)Nc1cccc(Cn2nc(-c3ccc(OCCC4CCCN4C)cc3)ccc2=O)c1 (stereo not shown) [Compound A17] | – |
| 10 to 1000 nM | CCOC(=O)Nc1cccc(Cn2nc(-c3ccc(OCC(C)CN4CCOCC4)cc3)ccc2=O)c1 (stereo not shown) [Compound A18] | – |
| 10 to 1000 nM | CCOC(=O)Nc1cccc(Cn2nc(-c3cccc(OCCCO)c3)ccc2=O)c1 [Compound A19] | – |
| 10 to 1000 nM | CCOC(=O)Nc1cccc(Cn2nc(-c3cccc(OCCCCOC)c3)ccc2=O)c1 [Compound A20] | – |
| 10 to 1000 nM | CCOC(=O)Nc1cccc(Cn2nc(-c3cccc(OCCOC)c3)ccc2=O)c1 [Compound A21] | – |
| 10 to 1000 nM | CCOC(=O)Nc1cccc(Cn2nc(-c3cccc(OCCCCO)c3)ccc2=O)c1 [Compound A22] | – |
| 10 to 1000 nM | CCOC(=O)Nc1cccc(Cn2nc(-c3cccc(OCCCCNC(=O)OC(C)(C)C)c3)ccc2=O)c1 [Compound A23] | – |

| IC50 (Met kinase) | SMILES | antitumoural action (TPR-Met/NIH3T3 cells) |
| --- | --- | --- |
| 10 to 1000 nM | CCOC(=O)Nc1cccc(Cn2nc(-c3cccc(OCCN4CCOCC4)c3)ccc2=O)c1 [Compound A24] | – |
| 10 to 1000 nM | CCOC(=O)Nc1cccc(Cn2nc(-c3cccc(OCCCOC)c3)ccc2=O)c1 [Compound A25] | – |
| 10 to 1000 nM | CCOC(=O)Nc1cccc(Cn2nc(-c3cccc(OCCNC(=O)OC(C)(C)C)c3)ccc2=O)c1 [Compound A26] | – |
| 10 to 1000 nM | CCOC(=O)Nc1cccc(Cn2nc(-c3cc(F)c(OCCCN(C)C)c(F)c3)ccc2=O)c1 [Compound A27] | – |
| 10 to 1000 nM | CCOC(=O)Nc1cccc(Cn2nc(-c3cc(F)c(OCCCN4CCOCC4=O)c(F)c3)ccc2=O)c1 [Compound A28] | – |
| 10 to 1000 nM | CCOC(=O)Nc1cccc(Cn2nc(-c3cc(F)c(OCCCNC)c(F)c3)ccc2=O)c1 [Compound A29a] | – |
| 10 to 1000 nM | CCOC(=O)Nc1cccc(Cn2nc(-c3cc(F)c(OCCCCCNC(=O)OC(C)(C)C)c(F)c3)ccc2=O)c1 [Compound A31] | – |
| 10 to 1000 nM | CCOC(=O)Nc1cccc(Cn2nc(-c3cc(F)c(OCCN(C)C)c(F)c3)ccc2=O)c1 [Compound A33] | – |
| 10 to 1000 nM | CCOC(=O)Nc1cccc(Cn2nc(-c3cc(F)c(OCCOC)c(F)c3)ccc2=O)c1 [Compound A34] | – |
| 10 to 1000 nM | CCOC(=O)Nc1cccc(Cn2nc(-c3cc(F)c(OCCCCO)c(F)c3)ccc2=O)c1 [Compound A35] | – |
| 10 to 1000 nM | CCOC(=O)Nc1cccc(Cn2nc(-c3cc(F)c(OCCCOC)c(F)c3)ccc2=O)c1 [Compound A37] | – |
| 10 to 1000 nM | CCOC(=O)Nc1cccc(Cn2nc(-c3cc(F)c(OCCCO)c(F)c3)ccc2=O)c1 [Compound A38] | – |
| 10 to 1000 nM | CCOC(=O)Nc1cccc(Cn2nc(-c3cc(F)c(OCCCN4CCCC4)c(F)c3)ccc2=O)c1 [Compound A43] | – |
| 10 to 1000 nM | CCOC(=O)Nc1cccc(Cn2nc(-c3ccc(OCCCCCN)cc3)ccc2=O)c1 [Compound A44] | – |
| 10 to 1000 nM | CCOC(=O)Nc1cccc(Cn2nc(-c3cc(F)c(OCCN)c(F)c3)ccc2=O)c1 [Compound A45] | – |
| 10 to 1000 nM | CCOC(=O)Nc1cccc(Cn2nc(-c3ccc(OCCN)cc3)ccc2=O)c1 [Compound A48] | – |
| 10 to 1000 nM | CCOC(=O)Nc1cccc(Cn2nc(-c3cccc(OCCCCN)c3)ccc2=O)c1 [Compound A49] | – |
| 10 to 1000 nM | CCOC(=O)Nc1cccc(Cn2nc(-c3ccc(OCCCCN)cc3)ccc2=O)c1 [Compound A50] | – |
| 10 to 1000 nM | CCOC(=O)Nc1cccc(Cn2nc(-c3cc(F)c(OCCCCCN)c(F)c3)ccc2=O)c1 [Compound A52] | – |
| 10 to 1000 nM | CCOC(=O)Nc1cccc(Cn2nc(-c3cc(F)c(OCCCN)c(F)c3)ccc2=O)c1 [Compound A53] | – |
| 10 to 1000 nM | CN(C)CCCOc1c(F)cc(-c2ccc(=O)n(Cc3ccc4[nH]c(=O)[nH]c4c3)n2)cc1F [Compound A55, 5-{3-[4-(3-dimethylaminopropoxy)-3,5-difluorophenyl]-6-oxo-6H-pyridazin-1-ylmethyl}-1,3-dihydrobenzimidazol-2-one] | – |
| 10 to 1000 nM | CN1CCN(CCCOc2c(F)cc(-c3ccc(=O)n(Cc4ccc5[nH]c(=O)[nH]c5c4)n3)cc2F)CC1 [Compound A56, 5-(3-{3,5-difluoro-4-[3-(4-methylpiperazin-1-yl)propoxy]-phenyl}-6-oxo-6H-pyridazin-1-ylmethyl)-1,3-dihydrobenzimidazol-2-one] | significant antitumoural action |
